Values after ≈ are worked out from the molar mass of the structure shown.
Key:
Type in all cases: cell-based
[1] = tested on: Streptococcus pneumoniae DSM 20566 (ATCC 33400); experiment: Anti-bacterial bouillon microdilution assay (MIC), bacterium A; settings: Streptococcus pneumoniae DSM 20566, 24 h
Description: Selected compounds of the invention were tested in a bouillon microdilution assay method according to the DIN 58940 (www.din.de) guidelines for determination of susceptibility of bacterial strains with regard to cell growth inhibition. The assay method quantifies bacterial cell growth which corresponds to the turbidity of the liquid culture medium by photometric measurement carried out at 595 nm.
The method of MIC determination was performed according to DIN 58940-5. The volumina were adapted according to the microdilution method as described in DIN 58940-7 guideline.
Dependent on water solubility, compounds of the invention were dissolved either in water or ethanol in a concentration of 10 mg/ml. Subsequently, the stock was further diluted in water to a concentration of 512 μg/ml. The following serial dilutions (factor 2) were performed in water resulting in the following […] testing concentrations: 256 μg/ml, 128 μg/ml, 64 μg/ml, 32 μg/ml, 16 μg/ml, 8 μg/ml, 4 μg/ml, 2 μg/ml, 1 μg/ml, 0.5 μg/ml, 0.25 μg/ml and 0.125 μg/ml. Diluted compounds of the invention were transferred in 100 μl volume to the microtiter plate wells.
Pre-cultures of bacteria were grown in appropriate liquid media (refer to ATCC webpage, www.atcc.org) and afterwards were inoculated in corresponding liquid medium. 100 μl of the inoculums [adjusted to an amount of app. 1×10^6 microorganisms per ml (range of 10^5-10^8 microorganisms per ml)] were added to each of the testing compound concentrations and cultivated under the appropriate conditions.
Before and after incubation, bacterial growth was determined by photometric analysis against a positive control containing growing bacteria without compound and a sterile/negative control containing only the medium.

[2] = tested on: PC3 (human prostate carcinoma) cells; experiment: XTT cytotoxicity assay, PC3 cells; settings: 31.6 μM, second set of experiments
Procedure, shortened: (§1)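 Cells recovered 24 h after plating, then exposed to compounds for 48 h at 37 °C; one set used 10 semi-log concentrations from 100 μM, another 31.6 μM final for PC3 and RKOp21. XTT-PMS added for 3 h, formazan absorbance at 490 nm versus untreated cells; IC50 from inhibition curves.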

[3] = tested on: SKOV-3 (human ovary adenocarcinoma) cells; experiment: XTT cytotoxicity assay, SKOV-3 cells
Procedure, shortened: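 Exponentially growing SKOV-3 cells recovered 24 h after plating, then received freshly diluted compounds for 2 days of continuous exposure. Viability was read by formazan formation after 3 h with XTT-PMS at 37° C., 5% CO2. IC50 came from inhibition curves.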

[4] = tested on: RKOp21 (human colon adenocarcinoma) cells; experiment: XTT cytotoxicity assay, RKOp21 cells; settings: 31.6 μM, second set of experiments
Procedure, shortened: as §1

[5] = tested on: Moraxella catarrhalis DMS 11994 (ATCC 43617); experiment: Anti-bacterial bouillon microdilution assay (MIC), bacterium D
Procedure, shortened: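 Broth microdilution MIC per DIN 58940-5/-7. Twofold compound dilutions in water spanned 256 to 0.125 μg/ml in the test concentration series, with inocula of about 1×10^6 organisms/ml in strain-appropriate media. Growth was read as turbidity at 595 nm before and after incubation, against growth and sterile controls.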

Row | SMILES | MIC [1] [µg/mL] | inhibition at 31.6 µM ([2]; Homo sapiens, PC-3, read-out: PC3 % INH [31.6 μM]) [%] | inhibition at 100 µM ([3]; Homo sapiens, SK-OV-3, second set of experiments, read-out: SKOV-3 % INH [100 μM]) [%] | inhibition at 31.6 µM ([4]; Homo sapiens, read-out: RKOp21 % INH [31.6 μM]) [%] | MIC ([5]; ATCC43617, 24 h) [µg/mL] | MIC, bacterium A [1] [µg/mL] | PC3 % INH [31.6 μM] [2] [%] | SKOV-3 % INH [100 μM] ([3]; second set of experiments) [%] | RKOp21 % INH [31.6 μM] [4] [%] | MIC, bacterium D ([5]; 24 h) [µg/mL]
1 | CCCCCCCCCCCCCCCCOP(=O)([O-])OCC[N+](C)(C)C [miltefosine, hexadecylphosphocholine, reference compound] | 128 (≈ 314 µM) | 67.4 | 74.7 | 64 | 16 (≈ 39.3 µM) |  |  |  |  | 
2 | CCCCCCCCCCCCCCCCOP(=O)([O-])OCC[N+]1(C)CCCCC1 [Compound 2, Phosphoric acid hexadecyl ester 2-(1-methyl-piperidin-1-yl)-ethyl ester] |  |  |  |  |  | 8 (≈ 17.9 µM) | 50.1 | 19.5 | 38.8 | 4 (≈ 8.94 µM)
